“Also recorded” adds a separate entry of the source.
Columns and labels:
[1] = test system: bone marrow derived macrophages (BMMs); test: FRET assay for antigen cytosolic transfer (CCF4-AM/β-lactamase) in bone marrow derived macrophages; format: cell-based, C57/black-6 mice; conditions: for effect on indomethacin induced transfer of β-lactamase to the cytosol: indomethacin 1mM 15 minutes, then β-lactamase with wortmannin 0.5µM, radicicol 25µM or Pyr41 10µM for 90 minutes at 37°C; for reversal of inhibitor-induced antigen transfer to the cytosol (complementation): after indomethacin 1mM or AACOCF3 0.25mM, diMePGE2 or U46619 10µM added with β-lactamase for 90 minutes at 37°C; for transfer of β-lactamase to the cytosol (450/535 nm ratio, CCF4 cleavage): compound 15 minutes at 37°C (AACOCF3 0.25mM, baïcalein 1mM, indomethacin 1mM, sulindac sulphide 1mM, ICI192605 1mM, arachidonic acid 80µM), then 1 mg/ml β-lactamase 90 minutes at 37°C
Experimental: Primary Cells and Mice - Bone marrow derived dendritic cells and macrophages were isolated by flushing femur and tibia from 6 to 9 weeks old C57/black-6 mice with ROSWELL PARK MEMORIAL INSTITUTE-1640 (RPMI-1640) supplemented with GLUTAMAX using 5 ml syringes (BD PLASTIPAK) and 0.5 x 16 mm needles 25G 5/8 (BD MicroLance). After centrifugation at 1000 rpm for 4 minutes, cells were resuspended in 1.66% NH4Cl, and put at 4°C for 10 minutes. After centrifugation at 1,000 rpm for 4 minutes, cells were quantified and incubated at 37°C/5% CO2 for 7 to 10 days in RPMI-1640 with GLUTAMAX containing 10% v/v fetal calf serum (GIBCO) and 50µg/ml penicillin/streptomycin (GIBCO). Granulocytes and macrophages-colony stimulating factor (GM-CSF, MILTENIY BIOTEC) and macrophages-colony stimulating factor (M-CSF, PREPROTECH) were added at day 0 at a concentration of 50 ng/ml in order to allow dendritic cells or macrophages differentiation. Dendritic cells were replated every 3 days adding each time fresh GM-CSF. Macrophages were supplemented with fresh M-CSF at day 4 and replated at day 7 with M-CSF at 25ng/ml. Plasmacytoïd and conventional dendritic cells were isolated from C57/black-6 mice spleen using a plasmacytoïd dendritic cell isolation kit (MILTENYI BIOTEC) and a CD8+ dendritic cell isolation kit (MILTENYI BIOTEC). BMDCs, pDCs and cDCs were adhered on 0.01% poly-lysine coated plates in phosphate buffer saline (PBS).
(§1) FRET assay for antigen cytosolic transfer - 30,000 to 50,000 cells were seeded on 96 well plates and loaded in a mix containing 3.3µM CCF4-AM (INVITROGEN), 1mM probenecid (SIGMA) and 1.5µl solution B (INVITROGEN) in EM buffer (120mM NaCl, 7mM KCI, 1.8mM CaCl2, 0.8mM MgCl2, 5mM glucose and 25mM HEPES at pH 7.3) in a final volume of 30 µl at 37°C. Following 1 mg/ml β-lactamase incubation in EM buffer, cells were washed with 1mM PBS/probenecid and imaged in EM buffer containing 1mM probenecid.
(§2) Fluorescence microscopy and image analysis - All acquisitions were performed on a NIKON TI WIDEFIELD microscope with a 20X N-Plan Objective. Experiments in triplicates were repeated at least 3 times independently for each condition using 25 pictures per replicate randomly and automatically. Image analysis was performed using custom-designed algorithms as described in Ray et al. 2010 (Cell Microbiol. 12(4): 545-556) and Simeone et al. 2012 (PLoS Pathog. 8(2): e1002507). Briefly, the 450 and 535 nm emission signals were scored automatically for each individual cells on a large set of images using METAMORPH. The quantitative parameters were then exported as an EXCEL file in which the ratio between the intensity of the 450 and 535 nm emission signals were presented as an average of the ratio in the whole cell population. After algorithm processing, mean ratios 450/535 nm from different replicates were obtained and pooled together as an average and the status of cytosolic transfer was assessed. Error bars represent standard deviation.

[2] = at 37°C; cited from earlier work
[3] = test system: bone marrow derived dendritic cells (BMDCs); test: B3Z cross-priming experiments (cross-presentation of ovalbumin); format: cell-based, C57/black-6 mice; conditions: 15 minutes indomethacin 1mM or lactacystine 3µM, serial dilutions of ovalbumin 4 hours, B3Z hybridoma cells 1:1 overnight
Experimental: B3Z cross-priming experiments - 50,000 BMDCs per well were seeded on poly-L-lysine coated 96 well plates. After treatment with DMSO, 3µM lactacystine, or 1mM indomethacin for 15 minutes in RPMI-1640 complemented with 10% v/v fetal calf serum and 50 µg/ml penicillin/streptomycin at 37°C, cells were incubated with serial dilutions (from 3 to 0.0275 mg/ml) of ovalbumin (EUROMEDEX) for 4 hours. Triplicates were performed for each concentration and serial dilutions of the SIINFEKL 257-264 peptide (POLYPEPTIDE GROUP) were used as positive control (dilutions 1/10 starting from 0.1µg/ml). After 3 washes, cells are incubated overnight with 50,000 B3Z hybridoma cells at 37°C, washed once and subjected to the chlorophenol red-D-galactopyranoside (CPRG) detergent mix containing 100mM β-mercaptoethanol, 100mM MgCl2, 0.125% NP40 and 0.15mM CPRG at 37°C for 4 hours. OD 492 as indicator of β-galactosidase (lacZ) activity produced under the control of the interleukin 2 promoter was subsequently measured by plate reader. Data were obtained from 3 independent experiments and plotted by GRAPHPAD PRISM (error bars: standard deviation).

HeLa cells = test: FRET assay for antigen cytosolic transfer (CCF4-AM/β-lactamase) in HeLa cells; format: cell-based; conditions: indomethacin 1mM 15 minutes at 37°C, 1 mg/ml β-lactamase 90 minutes
[4] = test system: bone marrow derived macrophages (BMMs); test: Cytosolic delivery of fluorescent antigens (Cy3-dextran, Cy3-β-lactamase, Cy3) by widefield microscopy; format: cell-based, C57/black-6 mice; conditions: indomethacin 1mM 15 minutes; for transfer of fluorescent dextran to the cytosol: 10-kDa Cy3-dextran 1 mg/ml for 90 minutes; for transfer of Cy3-labelled β-lactamase to the cytosol: Cy3-Bla 0.2 mg/ml for 90 minutes
[5] = test system: BV2 macrophages-like cells; test: FRET assay for antigen cytosolic transfer (CCF4-AM/β-lactamase) in BV2 macrophage like cells; format: cell-based, Murine; conditions: indomethacin 1mM 15 minutes; for indomethacin induced transfer of β-lactamase adsorbed to beads or expressed by E. coli: increasing amount of beads adsorbed or E. coli expressed β-lactamase at 37°C for 90 minutes; for indomethacin induced cytosolic transfer as a function of external β-lactamase concentration: increasing amount of β-lactamase at 37°C for 90 minutes
Experimental: Cell lines - Murine Raw and BV2 macrophages like cells were cultured in RPMI-1640 with GLUTAMAX (GIBCO) containing 10% v/v fetal calf serum (GIBCO) and 50 µg/ml penicillin/streptomycin (GIBCO). B3Z were cultured in the same medium but supplemented with 1mg/ml G418 (SIGMA) and 0.4 mg/ml hygromycin B (SIGMA). JAWS-II cells were cultured in Iscove's Modified Dulbecco's Media (IMDM) with L-Glutamine and 25mM HEPES containing 10% v/v fetal calf serum (GIBCO), 50 µg/ml penicillin/streptomycin (GIBCO) and 5ng/ml GM-CSF. All cell lines were maintained at 37°C and 5% CO2.
Preparation of beads and bacteria - E. coli DH5α were used expressing β-lactamase from a pBAD18 plasmid. After PBS washing, bacteria were re-suspended in EM buffer and the MOI was calibrated by measuring the absorbance of the overnight culture at OD 600nm. 3µm polystyrene beads (TEBU-BIO) were washed once before adsorption with β-lactamase at 4°C on a rotating wheel overnight. After PBS washing, beads were re-suspended in PBS buffer.
as §1, §2

C/C=C/[C@H]1O[C@@](O)([C@@H](C)[C@H](O)[C@H](C)[C@H]2OC(=O)/C(OC)=C/C(C)=C/[C@@H](C)[C@@H](O)[C@@H](C)[C@@H](O)[C@H](C)C/C(C)=C/C=C/[C@@H]2OC)C[C@@H](O[C@H]2C[C@@H](O)[C@H](OC(N)=O)[C@@H](C)O2)[C@@H]1C [conB, Concanamycin B]
cytosolic transfer of β-lactamase on increased endosomal antigen stability ([1]; concanamycin B 25nM or protease inhibitors 1X with β-lactamase for 90 minutes at 37°C): neither conB nor PI incubation led to any cytosolic transfer of β-lactamase

C[C@@H]1C[C@H]2O[C@@H]2/C=C\C=C\C(=O)Cc2c(Cl)c(O)cc(O)c2C(=O)O1 [radicicol]
effect on indomethacin induced transfer of β-lactamase to the cytosol [1]: restrained

CCCCC(C)(C)[C@H](O)/C=C/[C@H]1[C@H](O)CC(=O)[C@@H]1C/C=C\CCCC(=O)O [dimethylPGE2, dimethyl-prostaglandin E2]
reversal of inhibitor-induced antigen transfer to the cytosol (complementation) [1]: did not lead to a reversal of the effect of antigen transfer to the cytoplasm

CCCCC[C@H](O)/C=C/[C@H]1O[C@H]2C[C@H](O2)[C@@H]1C/C=C\CCCC(=O)O [TXA2, Thromboxane A2]
half-life [2]: less than one minute

CCCCC[C@H](O)/C=C/[C@H]1[C@H](O)CC(=O)[C@@H]1C/C=C\CCCC(=O)O [PGE2, prostaglandin E2]
half-life [2]: less than one minute

O=C(O)CC/C=C\CC1COC(c2ccccc2Cl)OC1c1ccccc1O (stereo not drawn) [ICI192605, 4-(Z)-6-(2-o-Chlorophenyl-4-o-hydroxyphenyl-1,3-dioxan-cis-5-yl)hexenoic acid]
transfer of β-lactamase to the cytosol (450/535 nm ratio, CCF4 cleavage) [1]: led to a robust antigen transfer

CC(=O)N[C@@H](CSC(=O)[C@]1([C@@H](O)C(C)C)NC(=O)[C@H](C)[C@@H]1O)C(=O)O [lactacystin]
cross-presentation of ovalbumin (B3Z lacZ activity, CPRG) [3]: do not cross-present ovalbumin

CCCCC/C=C\C/C=C\C/C=C\C/C=C\CCCC(=O)O [arachidonic acid]
transfer of β-lactamase to the cytosol (450/535 nm ratio, CCF4 cleavage) [1]: triggered cytosolic access of our model antigen β-lactamase

CCOC(=O)c1ccc(N2NC(=O)/C(=C/c3ccc([N+](=O)[O-])o3)C2=O)cc1 [Pyr41]
effect on indomethacin induced transfer of β-lactamase to the cytosol [1]: decreased cytosolic antigen transfer induced by indomethacin; also recorded: restrained

COc1ccc2c(c1)c(CC(=O)O)c(C)n2C(=O)c1ccc(Cl)cc1 [indomethacin, 1-(4-chlorobenzoyl)-5-methoxy-2-methyl-1H-indole-3-acetic acid]
cross-presentation of ovalbumin (B3Z lacZ activity, CPRG) [3]: displayed enhanced capacities for cross-priming compared to the DMSO control
cross-presentation of ovalbumin (B3Z lacZ activity, CPRG) ([3]; listed as Indomethacin): promotes cross-presentation of ovalbumin
transfer of β-lactamase to the cytosol in HeLa cells (HeLa cells): no cytosolic β-lactamase delivery
transfer of β-lactamase to the cytosol in HeLa cells (HeLa cells; listed as Indomethacin): does not trigger the transfer of β-lactamase to the cytosol
transfer of β-lactamase to the cytosol (450/535 nm ratio, CCF4 cleavage) [1]: led to a robust cytosolic transfer of beta-lactamase
transfer of fluorescent dextran to the cytosol [4]: the staining switched to cytosolic staining
transfer of fluorescent dextran to the cytosol ([4]; listed as Indomethacin): triggers the transfer of Cy3 labeled β-lactamase, dextran and Cy3 to the cytosol
transfer of Cy3 alone to the cytosol ([4]; Cy3 0.2 mg/ml for 90 minutes, listed as Indomethacin): triggers the transfer of Cy3 labeled β-lactamase, dextran and Cy3 to the cytosol
transfer of Cy3-labelled β-lactamase to the cytosol [4]: induced not only the transfer of Cy3-labelled β-lactamase
transfer of Cy3-labelled β-lactamase to the cytosol ([4]; listed as Indomethacin): triggers the transfer of Cy3 labeled β-lactamase, dextran and Cy3 to the cytosol
indomethacin induced transfer of β-lactamase adsorbed to beads or expressed by E. coli [5]: same dose-dependency
indomethacin induced transfer of β-lactamase adsorbed to beads or expressed by E. coli ([5]; listed as Indomethacin): is also able to trigger the transfer of β-lactamase when adsorbed to beads or expressed by E. coli in BV2 macrophages-like cells in a dose dependent manner
indomethacin induced cytosolic transfer as a function of external β-lactamase concentration [5]: dose-dependent on the external concentration of β-lactamase
indomethacin induced cytosolic transfer as a function of external β-lactamase concentration ([5]; listed as Indomethacin): depends on the external concentration of β-lactamase

CCCCC/C=C\C/C=C\C/C=C\C/C=C\CCCC(=O)C(F)(F)F [AACOCF3, 1,1,1-trifluoro-6Z,9Z,12Z,15Z-heneicosatetraen-2-one]
transfer of β-lactamase to the cytosol (450/535 nm ratio, CCF4 cleavage) [1]: dramatically and robustly boosted transfer of the model antigen β-lactamase to the cytosol

CCCCC[C@H](O)/C=C/[C@@H]1[C@@H](C/C=C\CCCC(=O)O)[C@H]2CO[C@@H]1C2 [U46619]
reversal of inhibitor-induced antigen transfer to the cytosol (complementation) [1]: reduced the inhibitor-induced antigen transfer to the cytosol

Source: EP3037106A1, “TXA2 inhibitor as stimulator or inducer of MHC Class I cross-presentation” (INSTITUT PASTEUR, priority 2014, dated 2016)
